Experimental data reported in patent US12285034B2, “Human and non-human animal use of microbial anaplerotic oil” (HELIAE DEVELOPMENT, LLC, priority 2017, dated 2025).
Read-outs that look alike come from different tables or passages of the source.

Key:
[1] = test system: Aurantiochytrium acetophilum HS399; test: Cyanocobalamin and propionate deposition, flask (Example 10); assay type: cell-based; details: for Final Propionate: initial 3 g/L; for Cell dry weight: propionate 3 g/L
[2] = test system: Aurantiochytrium acetophilum HS399; details: for OCFA / Total Fatty Acids: 73 h, 10 L fermenter
Description: […] In this implementation, the pH can be maintained at 7±1 in respective treatments.
In one implementation, fermenters may be used to culture A. acetophilum HS399. […] In this implementation, two treatments using different cyanocobalamin concentrations (0.00185, 0 μM) are compared in duplicates.

[3] = test system: Aurantiochytrium acetophilum HS399; test: Model of intracellular (cytosolic) propionate, Henderson-Hasselbalch (Example 4)
Source text: In one implementation, the change in pH may be calculated with the following equation derived from the Henderson and Hasselbalch equation: […]

[4] = test system: Aurantiochytrium acetophilum HS399; assay type: cell-based
Description: In this implementation, initially (24 h incubation), the culture pH may not be controlled, and the pH of the respective treatments can drift from 7.5 to 8. After 24 h incubation, the desired pH set point of each treatment can be set using the respective organic acids. […] The cultures are aerated at 1.4 vvm and maintained at 27° C. under axenic conditions. […] This medium also contains a trace element solution (5 ml/L) and a vitamin solution (1 ml/L). The trace element solution can contain (g/L): […] […] Residual glucose is analyzed from culture supernatant (5000 g; 5 min) using a colorimetric method based on glucose […] activity. Residual acetate and propionate are analyzed by HPLC using external standard.

[5] = test system: Aurantiochytrium acetophilum HS399; assay type: cell-based; details: for OCFA / Total Fatty Acids / Total Lipids: harvest; for OCFA Productivity / Propionate deposition: 120 h
Description: Respective Erlenmeyer flasks (250 mL) are inoculated (1% v/v) in triplicates with a 24 h old culture of A. acetophilum HS399 and incubated in an orbital shaker at 180 rpm and 27° C.
Respective Erlenmeyer flasks contain 100 mL of a medium supplemented with (g/L): dextrose (100), ammonium acetate (4.6), NaCl (12.5), MgSO4 7H2O (2.5), KH2PO4 (0.5), KCl (0.5) and CaCl2 (0.1). This medium also contains trace element solution (5 ml/L) and vitamin solution (1 ml/L). The trace element solution contains (g/L): EDTA di-sodium salt (6), FeCl3 6H2O (0.29), […] (6.84), MnCl2 4H2O (0.86), ZnCl2 (0.06), CoCl2 6H2O (0.026), NiSO4 6H2O (0.052), CuSO4 5H2O (0.002), Na2MoO4H2O (0.005). The vitamin solution contains (mg/L): thiamine (100), biotin (0.5) and cyanocobalamin (0.5).
In this example, respective culture materials are autoclaved (e.g., 121° C., 15 min) and the media is filter sterilized before use. […] Daily samples are collected to analyze the cell dry weight, residual glucose, culture pH (see FIG. 15), and lipid and fatty acid composition of the cultures. Cell dry weights are analyzed by filtration (e.g., 0.2 μm filter media) using a vacuum and washed with a solution of ammonium bicarbonate. Residual glucose is analyzed using a colorimetric method based on glucose […] activity. Biomass for lipid analysis is centrifuged and washed using purified water. The washed biomass is freeze dried. Total lipids are analyzed using Folch method (AOAC 996.06) and the FAMES are analyzed by gas chromatography and flame ionization detection using nonadecanoic (C19:0) acid as an internal standard.

[6] = propionate 0 + 1 + 1 + 1 g/L (Day 5)
[7] = propionate 0 + 2 + 2 + 2 g/L (Day 5)
[8] = propionate 0 + 3 g/L (Day 5), listed as propionate
[9] = propionate 3 g/L (Day 5), listed as propionate

## CCC(=O)O [Propionate, propionic acid]
[1]; cyanocobalamin 0 μM, listed as Propionic acid
  Propionate deposition: 99.9 ± 5.8 % fed
[1]; cyanocobalamin 0 μM, listed as propionate
  Propionate deposition: 99.5 % fed
[1]; cyanocobalamin 0.00037 μM
  Propionate deposition: 47.0 ± 0.9 % fed
  Final Propionate: 0.1 g/L
  Cell dry weight: 32.0 ± 0.7 g/L
[1]; cyanocobalamin 0.37 μM
  Propionate deposition: 10.3 ± 1.0 % fed
  Final Propionate: 0.06 g/L
  Cell dry weight: 37.0 ± 1.4 g/L
[1]; cyanocobalamin 0 μM
  Final Propionate: 0.36 g/L
  Cell dry weight: 35.0 ± 1.2 g/L
[2]; 10 L fermenters, pH-auxostat, 0 μM vs with cyanocobalamin
  less propionic acid consumed without cyanocobalamin: 30%
[2]; cyanocobalamin 0 μM
  OCFA: 52.0 % TFA
  Total Fatty Acids: 56.9 % DW
  Propionate deposition: 65.7%
  gpropionate/gbiomass: 0.14
[2]; cyanocobalamin 0.37 μM
  OCFA: 52.6 ± 0.5 % TFA
  Total Fatty Acids: 54.7 ± 0.5 % DW
  Propionate deposition: 49.9%
  gpropionate/gbiomass: 0.18 ± 0.01
[2]; initial 3 g/L, pH 7±1, flask
  time in which initial propionate is consumed: ≤ 72 h
[3]; from 1 g/L, pH 7 (growth inhibitory)
  intracellular propionate concentration: 1 g/L
[3]; from ~15 g/L residual, pH 6 (lethal)
  intracellular propionate concentration: 176 g/L
[3]; initial propionate 20 g/L, pH 6.4
  lethal threshold, Cytosolic Propionate: 97.7 g/L
[3]; pH 5 set point
  D1-D4 Average Internal Propionic Acid (Theoretical Values): 56.70 g/L
[3]; pH 6 set point
  D1-D4 Average Internal Propionic Acid (Theoretical Values): 4.18 g/L
[3]; pH 7 set point
  D1-D4 Average Internal Propionic Acid (Theoretical Values): 0.13 g/L
[3]; pH drift approach, pH 5.3, 2.3 g/L, listed as Propionic acid
  lethal threshold, Cytosolic Propionate: 107.5 ± 3.5 g/L
[3]; pH drift approach, pH 5.3, 2.3 g/L, listed as propionate
  lethal threshold, Cytosolic Propionate: 107.5 g/L
[4]
  effect on growth (cell dry weight, glucose): highly growth inhibitory
[4]; pH 5 set point
  Consumed propionate: 2.3 ± 0.2 g/L
  Propionic Acid Deposited: 30.9 ± 2.0%
[4]; pH 6 set point
  Consumed propionate: 2.4 ± 0.1 g/L
  Propionic Acid Deposited: 40.3 ± 1.6%
[4]; pH 7
  effect on growth (cell dry weight): not growth inhibitory
[4]; pH 7 set point
  Consumed propionate: 1.0 ± 0.1 g/L
  Propionic Acid Deposited: 24.7 ± 1.0%
[4]; propionic acid titrant, pH 5
  Total Fatty Acid: 59.2 ± 3.1 % CDW
  Total Lipids: 75.0 ± 3.0 % CDW
[4]; propionic acid titrant, pH 6
  Total Fatty Acid: 63.4 ± 0.3 % CDW
  Total Lipids: 79.5 ± 1.5 % CDW
[4]; propionic acid titrant, pH 7
  OCFA: 6.3 % TFA
  Total Fatty Acid: 70.3 ± 2.8 % CDW
  Total Lipids: 87.5 ± 1.5 % CDW
[5]
  residual concentration giving some growth inhibition: 1 g/L
[5]; P3 vs P0+3
  increase of OCFAs productivity by feeding propionate merely during lipogenesis: approximately 20%
[5]; propionate 0 + 1 + 1 + 1 g/L
  OCFA: 29.2 ± 0.4 % TFA
  Total Fatty Acids: 67.2 ± 5.0 % DW
  Total Lipids: 79.7 ± 0.6 % DW
[5]; propionate 0 + 2 + 2 + 2 g/L
  OCFA: 53.5 ± 0.8 % TFA
  Total Fatty Acids: 63.5 ± 1.6 % DW
  Total Lipids: 76.0 ± 1.0 % DW
[5]; propionate 0 + 3 g/L
  Total Fatty Acids: 66.0 ± 2.2 % DW
  Total Lipids: 79.5 ± 0.5 % DW
[5]; propionate 0 + 3 g/L (P0+3)
  OCFA: 27.6 ± 0.1 % TFA
[5]; propionate 0 + 3 g/L (P0+3), listed as propionate
  OCFA: 27.4 % TFA
[5]; propionate 3 g/L (P3)
  OCFA: 25.5 ± 0.2 % TFA
[5]; propionate 3 g/L (P3), listed as propionate
  OCFA: 25.2 % TFA
[5]; propionate 3 g/L (day 0)
  Total Fatty Acids: 64.8 ± 1.2 % DW
  Total Lipids: 78.0 ± 0.0 % DW
[5]; [6]
  OCFA Productivity: 1.19 ± 0.03 g/L/day
  Propionate deposition: 59.6 ± 1.4%
[5]; [7]
  OCFA Productivity: 1.86 ± 0.04 g/L/day
  Propionate deposition: 46.7 ± 0.9%
[5]; propionate 0 + 3 g/L (Day 5)
  OCFA Productivity: 1.18 ± 0.02 g/L/day
  Propionate deposition: 59.3 ± 1.1%
[5]; [8]
  OCFA Productivity: 1.18 ± 0.02 g/L/day
  Propionate deposition: 59.3±1.1%
[5]; propionate 3 g/L (Day 5)
  OCFA Productivity: 1.04 ± 0.01 g/L/day
  Propionate deposition: 52.2 ± 0.7%
[5]; [9]
  OCFA Productivity: 1.18 ± 0.02 g/L/day
  Propionate deposition: 52.2±0.7%
